Results on 24 molecules are retold here after patent US5622962A, “5α-reductase inhibitors” (priority 1995, dated 1997).

Experiment [1] has as its target T1, Type II 5α-Reductase from Human Prostate (Homo sapiens, UniProt P31213).
T1 construct: The same procedure as above was used for preparations using tissue from prostate surgery; from tissue; host or cells: human prostate tissue from surgery, homogenate, 100,000×g pellet
T1 sequence (P31213 1-254): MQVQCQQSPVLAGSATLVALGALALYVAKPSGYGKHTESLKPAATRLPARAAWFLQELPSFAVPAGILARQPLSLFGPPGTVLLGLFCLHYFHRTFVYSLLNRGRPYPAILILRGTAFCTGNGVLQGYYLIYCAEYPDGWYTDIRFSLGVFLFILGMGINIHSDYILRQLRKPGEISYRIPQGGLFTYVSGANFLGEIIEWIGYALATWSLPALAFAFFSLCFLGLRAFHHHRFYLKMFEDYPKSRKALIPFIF
In words: Human Type II 5α-reductase assay (conversion of [3H]-testosterone to 5α-reduced metabolites). The experiment is classed as biochemical.

Experiment [2] has as its target T2, Type I 5α-Reductase from Human Scalp (Homo sapiens, UniProt P18405).
T2 construct: Scalp punch biopsies from graft recipient sites were obtained from human hair transplant procedures; from tissue; host or cells: human scalp punch biopsies (hair transplant graft recipient sites), homogenate, 100,000×g pellet
T2 sequence (P18405 1-259): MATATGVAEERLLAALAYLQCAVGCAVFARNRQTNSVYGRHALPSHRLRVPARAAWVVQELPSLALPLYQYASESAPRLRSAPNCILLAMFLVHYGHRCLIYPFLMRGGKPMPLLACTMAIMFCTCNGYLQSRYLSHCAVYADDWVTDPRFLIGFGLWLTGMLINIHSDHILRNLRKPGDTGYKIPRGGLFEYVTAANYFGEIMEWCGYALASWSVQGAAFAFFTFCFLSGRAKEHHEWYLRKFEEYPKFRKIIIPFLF
In words: Human Type I 5α-reductase assay (conversion of [3H]-testosterone to 5α-reduced metabolites). The experiment is classed as biochemical.

Where [3] appears, read: pH 5.5, 0.3 μM, sodium acetate pH 5.5, 25°, 30 min, compared to control reaction mixtures, read-out: percent inhibition of Type II AR.
[4] abbreviates: pH 7.5, 0.3 μM, 50 nM [3H]-testosterone, pH 7.5, 25°, 180 min, compared to control reaction mixtures, read-out: percent inhibition of Type I AR.

Values joined by “and” are separate entries in the source; they are usually repeats but may differ in a detail not shown here. Identical values can stand only once. Like-named read-outs stand apart in the source and are kept apart here.

For `CN1C(=O)CC[C@]2(C)c3ccc(-c4cc(Cl)cc(Cl)c4)cc3CC[C@@H]12` [Example 52, (+)-(4aR)-(10bR)-4-methyl-8-(3,5-dichlorophenyl)-10b-methyl-1,2,3,4,4a,5,6,10b-octahydrobenzo[f]quinolin-3-one], the inhibition at 0.3 µM in experiment [1] (setting [3]) was found to be 10%; in experiment [2] (setting [4]), 68%.
In the case of `CN1C(=O)CC[C@]2(C)c3ccc(-c4cccc5ccccc45)cc3CC[C@@H]12` [Example 53, (+)-(4aR)-(10bR)-4-methyl-8-(1-naphthyl)-10b-methyl-1,2,3,4,4a,5,6,10b-octahydrobenzo[f]quinolin-3-one], the inhibition at 0.3 µM in experiment [1] (setting [3]) is 41%. In experiment [2] (0.3 μM, 50 nM [3H]-testosterone, pH 7.5, 25°, 180 min, compared to control reaction mixtures), the “percent inhibition of Type I AR” value is 100% and 66%.
As to `CN1C(=O)CC[C@]2(C)c3ccc(-c4cccc(-c5ccccc5)c4)cc3CC[C@@H]12` [Example 55, (+)-(4aR)-(10bR)-4-methyl-8-(3-biphenyl)-10b-methyl-1,2,3,4,4a,5,6,10b-octahydrobenzo[f]quinolin-3-one], the values for the inhibition at 0.3 µM in experiment [1] (setting [3]) and in experiment [2] (setting [4]) were 11% and 68%, respectively.
Consider `CN1C(=O)CC[C@]2(C)c3ccc(-c4ccc(Oc5ccccc5)cc4)cc3CC[C@@H]12` [Example 56, (+)-(4aR)-(10bR)-4-methyl-8-(4-phenoxyphenyl)-10b-methyl-1,2,3,4,4a,5,6,10b-octahydrobenzo[f]quinolin-3-one], for which the inhibition at 0.3 µM in experiment [1] (setting [3]) was found to be 3%; in experiment [2] (setting [4]), 92%.
On the same counts, the results for `CN1C(=O)CC[C@]2(C)c3ccc(-c4ccc(O)c(C=O)c4)cc3CC[C@@H]12` [Example 58, (+)-(4aR)-(10bR)-4-methyl-8-(3-formyl-4-hydroxyphenyl)-10b-methyl-1,2,3,4,4a,5,6,10b-octahydrobenzo[f]quinolin-3-one] are 24% and 65%.
The like results for `CN1C(=O)CC[C@]2(C)c3ccc(-c4c5ccccc5cc5ccccc45)cc3CC[C@@H]12` [Example 61, (+)-(4aR)-(10bR)-4-methyl-8-(9-anthracenyl)-10b-methyl-1,2,3,4,4a,5,6,10b-octahydrobenzo[f]quinolin-3-one] were, in that order, 36% and 53%.
`CN1C(=O)CC[C@]2(C)c3ccc(-c4ccc5cc(OCc6ccccc6)ccc5c4)cc3CC[C@@H]12` [Example 62, (+)-(4aR)-(10bR)-4-methyl-8-(2-[6-benzyloxy]naphthyl)-10b-methyl-1,2,3,4,4a,5,6,10b-octahydrobenzo[f]quinolin-3-one]: the inhibition at 0.3 µM in experiment [1] (setting [3]) amounted to 42%; in experiment [2] (setting [4]), 45%.
Turning to `CN1C(=O)CC[C@]2(C)c3ccc(-c4ccc(F)c5ccccc45)cc3CC[C@@H]12` [Example 64, (+)-(4aR)-(10bR)-4-methyl-8-(1-[4-fluoro]naphthyl)-10b-methyl-1,2,3,4,4a,5,6,10b-octahydrobenzo[f]quinolin-3-one], the inhibition at 0.3 µM in experiment [1] (setting [3]) was 22%; in experiment [2] (setting [4]), 81%.
On the same counts, the results for `Cc1ccc(-c2ccc3c(c2)CC[C@H]2N(C)C(=O)CC[C@]32C)c2ccccc12` [Example 65, (+)-(4aR)-(10bR)-4-methyl-8-(1-[4-methyl]naphthyl)-10b-methyl-1,2,3,4,4a,5,6,10b-octahydrobenzo[f]quinolin-3-one] are 42% and 79%.
On the same counts, the results for `CN1C(=O)CC[C@]2(C)c3ccc(-c4ccc5c6c(cccc46)CC5)cc3CC[C@@H]12` [Example 66, (+)-(4aR)-(10bR)-4-methyl-8-(5-acenaphthenyl)-10b-methyl-1,2,3,4,4a,5,6,10b-octahydrobenzo[f]quinolin-3-one] are 33% and 67%.
For the molecule `CN1C(=O)CC[C@]2(C)c3ccc(-c4cc5ccccc5c5ccccc45)cc3CC[C@@H]12` [Example 67, (+)-(4aR)-(10bR)-4-methyl-8-(9-phenanthrenyl)-10b-methyl-1,2,3,4,4a,5,6,10b-octahydrobenzo[f]quinolin-3-one], the inhibition at 0.3 µM in experiment [1] (pH 5.5, read-out: percent inhibition of Type II AR) is 54%; in experiment [2] (pH 7.5, read-out: percent inhibition of Type I AR) it was 22%.
For `CCCN(CC1CC1)c1ccc(-c2ccc3c(c2)CC[C@H]2N(C)C(=O)CC[C@]32C)c2ccccc12` [Example 68, (+)-(4aR)-(10bR)-4-methyl-8-(4-[N-propyl,N-cyclopropylmethylamino]-1-naphthyl)-10b-methyl-1,2,3,4,4a,5,6,10b-octahydrobenzo[f]quinolin-3-one], the inhibition at 0.3 µM in experiment [1] (setting [3]) stood at 37%; in experiment [2] (setting [4]), 31%.
On the same counts, the results for `Cc1cccc(-c2ccc3c(c2)CC[C@H]2N(C)C(=O)CC[C@]32C)c1C` [Example 69, (+)-(4aR)-(10bR)-4-methyl-8-(2,3-dimethylphenyl)-10b-methyl-1,2,3,4,4a,5,6,10b-octahydrobenzo[f]quinolin-3-one] are 6% and 84%.
The like results for `CN1C(=O)CC[C@]2(C)c3ccc(-c4ccc5ccccc5c4)cc3CC[C@@H]12` [Example 71, (+)-(4aR)-(10bR)-4-methyl-8-(2-naphthyl)-10b-methyl-1,2,3,4,4a,5,6,10b-octahydrobenzo[f]quinolin-3-one] were, in that order, 47% and 80%.
Regarding `Cc1ccc2ccccc2c1-c1ccc2c(c1)CC[C@H]1N(C)C(=O)CC[C@]21C` [Example 72, (+)-(4aR)-(10bR)-4-methyl-8-(1-[2-methyl]naphthyl)-10b-methyl-1,2,3,4,4a,5,6,10b-octahydrobenzo[f]quinolin-3-one], the values for the inhibition at 0.3 µM in experiment [1] (setting [3]) and in experiment [2] (setting [4]) were 26% and 16%, respectively.
The like results for `CN1C(=O)CC[C@]2(C)c3ccc(-c4cccc(Cl)c4Cl)cc3CC[C@@H]12` [Example 73, (+)-(4aR)-(10bR)-4-methyl-8-(2,3-dichlorophenyl)-10b-methyl-1,2,3,4,4a,5,6,10b-octahydrobenzo[f]quinolin-3-one] were, in that order, 16% and 87%.
As to `CCN(CC)C(=O)c1ccccc1-c1ccc2c(c1)CC[C@H]1N(C)C(=O)CC[C@]21C` [Example 74], the inhibition at 0.3 µM in experiment [1] (setting [3]) came to 26%; in experiment [2] (setting [4]), 16%.
With `CN1C(=O)CC[C@]2(C)c3ccc(-c4ccc(C(C)(C)C)cc4)cc3CC[C@@H]12` [Example 75, (+)-(4aR)-(10bR)-4-methyl-8-(4-t-butylphenyl)-10b-methyl-1,2,3,4,4a,5,6,10b-octahydrobenzo[f]quinolin-3-one], the inhibition at 0.3 µM in experiment [1] (setting [3]) was found to be 40%; in experiment [2] (setting [4]), 63%.
On the same counts, the results for `CCCCc1ccc(-c2ccc3c(c2)CC[C@H]2N(C)C(=O)CC[C@]32C)cc1` [Example 76, (+)-(4aR)-(10bR)-4-methyl-8-(4-n-butylphenyl)-10b-methyl-1,2,3,4,4a,5,6,10b-octahydrobenzo[f]quinolin-3-one] are 46% and 83%.
Take `CN1C(=O)CC[C@]2(C)c3ccc(-c4ccc(Cl)c(Cl)c4)cc3CC[C@@H]12` [Example 77, (+)-(4aR)-(10bR)-4-methyl-8-(3,4-dichlorophenyl)-10b-methyl-1,2,3,4,4a,5,6,10b-octahydrobenzo[f]quinolin-3-one]: the “percent inhibition of Type II AR” value in experiment [1] (0.3 μM, sodium acetate pH 5.5, 25°, 30 min, compared to control reaction mixtures) is 33%. For the same molecule, the inhibition at 0.3 µM came out at 46% in experiment [1] (setting [3]) and 88% in experiment [2] (setting [4]).
`CN1C(=O)CC[C@]2(C)c3ccc(-c4cccc(C(F)(F)F)c4)cc3CC[C@@H]12` [Example 80, (+)-(4aR)-(10bR)-4-methyl-8-(3-trifluoromethylphenyl)-10b-methyl-1,2,3,4,4a,5,6,10b-octahydrobenzo[f]quinolin-3-one]: the inhibition at 0.3 µM in experiment [1] (setting [3]) was 29%; in experiment [2] (setting [4]), 76%.
As for `COc1ccc2cc(-c3ccc4c(c3)CC[C@H]3N(C)C(=O)CC[C@]43C)ccc2c1` [Example 81, (+)-(4aR)-(10bR)-4-methyl-8-(2-[6-methoxy]naphthyl)-10b-methyl-1,2,3,4,4a,5,6,10b-octahydrobenzo[f]quinolin-3-one], the inhibition at 0.3 µM was determined as 25% in experiment [1] (setting [3]) and 92% in experiment [2] (setting [4]).
The like results for `CN1C(=O)CC[C@]2(C)c3ccc(-c4cc5ccccc5s4)cc3CC[C@@H]12` [Example 82, (+)-(4aR)-(10bR)-4-methyl-8-(2-benzothienyl)-10b-methyl-1,2,3,4,4a,5,6,10b-octahydrobenzo-[f]quinolin-3-one] were, in that order, 31% and 85%.
As to `CN1C(=O)CC[C@]2(C)c3ccc(-c4ccc(-c5ccccc5)cc4)cc3CC[C@@H]12` [Example 84, (+)-(4aR)-(10bR)-4-methyl-8-(4-biphenyl)-10b-methyl-1,2,3,4,4a,5,6,10b-octahydrobenzo[f]quinolin-3-one], the inhibition at 0.3 µM worked out at 23% in experiment [1] (setting [3]) and 88% in experiment [2] (setting [4]).

One may read the inhibition as the change of the read-out against control, counted positive when it falls.
